Measured values as given in patent publication US7714014B2, “Targeting GLI proteins in human cancer by small molecules” (The Regents of the University of California, priority 2005, dated 2010).

Experiments:
A549 (NSCLC) = assay: Apoptosis analysis (Annexin V FITC, flow cytometry); assay type: cell-based, human; details: 3 days
Experimental: (§1) Apoptosis was analyzed by using an Annexin V FITC Apoptosis Detection Kit (Biosource, Camarillo, Calif.), according to the manufacturer's protocol. After treatment with different small molecule compounds at various concentrations for about 3 days, cells were harvested by trypsinization, stained and immediately analyzed by flow cytometry (FACScan; Decton Dickinson, Franklin Lake, N.J.). Early apoptotic cells with exposed phosphatidylserine but intact cell membranes will bind to Annexin V-FITC, but not propidium iodide (PI). Cells in necrotic or late apoptotic stages will be labeled with both Annexin V-FITC and PI. “% apoptotic cells” or “% apoptosis” refers to the combined early and late apoptotic cells.
Flow cytometry was also used to examine apoptosis in several NSCLC cell lines after treatment with small molecule compounds of the invention.
Dose titration experiments of small molecule compound FN1-8 was performed using the NSCLC cell lines A549, H358, and H322. A 549, H358, and H322 cells were plated in 6-well plates and incubated with DM SO (control) or 7.5 μM, 10 μM, 15 μM, 20 μM, and 30 μM of FN1-8, respectively, for 3 days. A dramatic and dose-dependent cell killing in these cell lines was observed when FN1-8 was added at 15 μM or more. FN1-8 induced cell killing in A549 and […] at slightly lower concentrations than in H322 cells (data not shown). After 3 days, approximately 28% of the A549 cells and 58% of H358 underwent apoptosis when incubated with 20 μM FN1-8 (Table 3).

LnCAP (prostate cancer) = assay: as above; assay type: cell-based, human; details: 3 days
Experimental: as §1
Flow cytometry was also used to examine apoptosis induced by molecule compounds FN1-5 and FN1-8 in LnCAP cells. […] For example, app.

Normal renal cells = assay: as above; assay type: cell-based, human
Experimental: as §1
In addition, apoptosis induction after the treatment of different doses of FN1-5 (30 and 50 μM) or FN1-8 (10, 30, and 50 μM) in normal human renal cells was examined by flow cytometry.

[1] = test system: human breast cancer cell line MCF-7; assay: Cell survival assay (crystal violet); assay type: cell-based; details: for cell killing: MCF-7, 50 μM
Experimental: (§2) Typically, the small molecule compounds of the present invention were dissolved in DMSO at a concentration of 30 mM. The small molecule compounds were then tested under cell culture conditions at different concentrations ranging from 0, 10, 30, 50, to 100 uM. To determine cell survival after treatment, the cells were incubated with the small molecule compounds in 6-well plates for about 3 days. After removal of the cell culture medium, 1-ml of 0.5% crystal violet solution (prepared in 20% ethanol and 20% methanol) was added to stain the cells for 5 min. Then the crystal violet solution was rinsed clean with tap water. Cell survival was estimated based on the density of crystal stained plates.
The cell-based cytotoxicity assay described herein was used to determine the effect of small molecule compounds FN1-5 and FN1-8 in the human breast cancer cell line MCF-7. Viability of MCF-7 cells was analyzed after treatment with 30 and 50 μM FN1-5 and after treatment with 10, 30, and 50 μM FN1-8.

[2] = test system: human ovarian cancer cell line AZ23247; assay: Cell survival assay (crystal violet); assay type: cell-based; details: AZ23247, 30 μM and 50 μM
Experimental: as §2
The cell-based cytotoxicity assay described herein was used to determine the effect of small molecule compounds FN1-5 and FN1-8 in the human ovarian cancer cell line AZ23247. Viability of AZ23247 cells was analyzed after treatment with 10, 30 and 50 μM FN1-5 or FN1-8.

[3] = test system: human gastric cancer cell lines NUGC3, MNK28, and AGS; assay: Cell survival assay (crystal violet); assay type: cell-based; details: for cell killing: 50 μM
Experimental: as §2
The cell-based cytotoxicity assay described herein was used to determine the effect of small molecule compounds FN1-5 and FN1-8 in the human gastric cancer cell lines NUGC3, MNK28, and AGS. Viability of these cells was analyzed after treatment with 10, 30 and 50 μM FN1-5 or FN1-8.

[4] = test system: normal human muscle cells; assay: Cell survival assay (crystal violet); assay type: cell-based; details: 1, 10, 30, and 50 μM, 3 days
Experimental: as §2
The cell killing effect of small molecule compounds FN1-8, FN1-7, and FN1-5 at different doses was examined in normal human muscle cells. […] Normal muscle cells were plated in 6-well plates and incubated with 1, 10, 30, and 50 μM of each compound for 3 days, in the same manner as described herein for similar other experiments. […] Both FN1-5 and FN1-8 seem to be specific in killing cancer cells.

[5] = test system: human Gremlin promoter in HEK 293T cells; assay: Gremlin promoter-luciferase reporter assay; assay type: cell-based; details: 30 μM, 18-24 hours
Experimental: One day before transfection, cells (1×10^5) were plated in 12-well plates with growth medium without antibiotics. When cells reached 80-90% of confluence they were co-transfected using 0.5 μg of each promoter construct in pGL3Basic vector and 0.025 μg pRL-TK Vector (Promega; Madison, Wis.) containing Renilla Luciferase as an internal control for the transformation efficiency. Lipofectamine 2000™ (Invitrogen Life Technologies) was used to mediate transfection for about 6 hours. Then the medium was replaced with fresh medium containing various small molecule compounds at a concentration of 30 μM, and the resulting cells were cultured for an additional 18-24 hours and subjected to luciferase assay. Briefly, cells were lysed in a lysis buffer and Firefly and Renilla Luciferase activities in cells of each well, were measured using Dual-Luciferase Assay System (Promega) and an illuminometer. The measured luciferase activities were normalized to pRL-TK Vector activity and were given relative to the basal activity of empty pGL3-Basic Vector, which was set to unity. The data shown represent mean values (±S.D.). All measurements were performed in triplicate and repeated in at least three independent experiments. […]

| SMILES | % of apoptotic cells (A549 (NSCLC); A549, 10 μM) [%] | % of apoptotic cells (A549 (NSCLC); A549, 100 μM) [%] | % of apoptotic cells (LnCAP (prostate cancer); 30 μM) [%] | % of apoptotic cells (LnCAP (prostate cancer); 50 μM) [%] | % of apoptotic cells (Normal renal cells; 30 μM) [%] | % of apoptotic cells (Normal renal cells; 50 μM) [%] | cell killing [1] | cell killing [2] | cell killing [3] | cell killing effect in normal cells [4] | Gremlin promoter activity [5] | % of apoptotic cells (LnCAP (prostate cancer); 10 μM) [%] | % of apoptotic cells (Normal renal cells; 10 μM) [%] | cell killing potency compared with FN1-5 ([1]; MCF-7) | cell killing potency compared with FN1-5 [3] |
| --- | --- | --- | --- | --- | --- | --- | --- | --- | --- | --- | --- | --- | --- | --- | --- |
| O=C(NCCCCCO)C1C(c2ccccc2)=NN(c2ccccc2)C1c1ccccc1 (stereo not shown) [FN1-5, N-(5-Hydroxypentyl)-1,3,5-triphenyl-4,5-dihydro-pyrazole-4-carboxyamide] | 9.4 | 30.0 | 7.7 | 16.3 | 5.6 | 6.6 | dramatic cell killing | dramatic cell killing | dramatic cell killing | No noticeable cell killing effect | inactive | – | – | – | – |
| O=C(NCCc1ccc(O)cc1)C1C(c2ccccc2)=NN(c2ccccc2)C1c1ccccc1 (stereo not shown) [FN1-8, N-(2-(4-Hydroxyphenyl)ethyl)-1,3,5-triphenyl-4,5-dihydro-pyrazole-4-carboxyamide] | 12.5 | – | 11.0 | 41.5 | 4.1 | 6.2 | dramatic cell killing | dramatic cell killing | dramatic cell killing | No noticeable cell killing effect | inactive | 6.9 | 3.1 | more potent | more potent |
